# Laboratory results reported in patent US8518889B2, “Method of treating cancer with antibodies against long-form leukotriene B4 receptor BLT2” (Korea University Research & Business Foundation, priority 2007, dated 2013).
# Tests used:
# PWR-1E cells = assay: cell cycle analysis / apoptosis measurement; type: cell-based; conditions: 5 μM, 48 hr
# Experimental: After LNCaP cells and PWR-1E cells were treated with 5 μM LY255283 for 48 hr, the cells were fixed with 70% ethanol and stained with Pl. Cell cycle was analyzed using flow cytometry. The cells grown in 6-well cluster dishes were stimulated with 5 μM LY255283 for 48 h in serum free RPMI 1640. The cells which were collected by brief trypsinization were fixed for 12 hr with 70% ethanol at 4° C. The cells were resuspended in PBS containing RNase A (100 μg/ml) and incubated for 30 min at 37° C. The cells were stained with propidium iodide (50 μg/ml) (Sigma). Acquisition and analysis was performed by FACS using Cell Quest Alias software (BD Bioscience).
# [1] = system: 253J-BV bladder cancer cell; assay: mitochondrial membrane potential (JC-1, flow cytometry); type: cell-based, human; conditions: 48 hr
# Experimental: Mitochondrial damage is important to the apoptosis affected by the caspase-9 pathway. To evaluate the effect of LY255283 on the mitochondria membrane potential (MMP), cell were pretreated with the fluorescent mitochondria specific cationic dye, JC-1, and changes in membrane potential were measured by flow cytometry. Cells grown in 6 well-plates for 24 hr washed PBS and incubated in RPMI 1640 with 0.5% FBS containing different concentrations of LY255283 and U75302 for 48 hr. After cells were treated with 5 μg/ml of JC-1 for 30 min. Then removal of JC-1, washed with PBS, harvested by trypsinization, and resuspended in PBS. Sample was measured at 530 nm (FL-1 green) and 590 nm (FL-2 red) using a flow cytometry. […] And because of the loss of mitochondrial membrane potential in a LY255283 treated cells, it was speculated that caspase may play an essential role in the process of apoptosis.
# eosinophil membranes = conditions: read-out: IC50, inhibits the binding of radiolabeled LTB4 to eosinophil membranes; cited from earlier work
# [2] = system: VEGF-induced angiogenesis; assay: VEGF-induced angiogenesis (Matrigel plug, HUVEC tube formation and transmigration); set-up: species or system FVB mice; conditions: mouse, in vivo
# Experimental: FVB wild-type mice or BLT2 TG mice (female, 8-10 wk old) were subcutaneously injected with 400 μl of growth factor-reduced Matrigel from BD Biosciences containing heparin (20 units) and the agents to be tested. After 7 days, the mice were killed, and the solidified Matrigel was excised, fixed in 10% formalin, embedded in paraffin, cut into 5-μm sections and stained with anti-vWF antibody according to the manufacturer's instructions in the Blood Vessel Staining Kit (Chemicon). Each stained Matrigel section was photographed using a BX51 microscope equipped with a DP71 digital camera (Olympus), and the area of vWF-positive blood vessels was calculated using Image J software.
# Growth factor-reduced Matrigel (300 μl; BD Biosciences, San Diego, Calif.) was added to each 24-well plate and polymerized for 12 h at 37° C. […] After 12 hr, five randomly selected areas were photographed using a CKX41 microscope equipped with a DP71 digital camera, and tube lengths were measured and quantified using Image J software, the image processing program developed at the U.S. National Institutes of Health (NIH). […]
# The cells were then allowed to migrate to the lower side of the chambers, which contained LTB4, 12(S)-HETE or VEGF. […] Cell migration was quantified by counting the cells on the lower side of the filter after they were photographed using a CKX41 microscope equipped with a DP71 digital camera. […]
# LNCaP cells = type: cell-based, human; conditions: 5 μM, 48 hr
# Experimental: DNA fragmentation was shown by the harvesting of total cellular DNA. Cells were grown in 10 cm plates to 70% confluence with 10% FBS-supplemented medium. Then the media was replaced with serum free RPMI 1640 and the cells were treated with 5 μM LY255283 for 48 hr. Cellular DNA from cells was extracted incubating with lysis buffer (1 mM EDTA, 10 mM Tris, 120 mM NaCl, 1% SDS and 100 μg/ml proteinase K, pH 8.0) for 12 hr at 50° C. The lysate was centrifuged for 10 min at 13,000×g to separate the fragment DNA. The supernatant was then extracted twice with phenol/chloroform/isoamyl alcohol and precipitated with absolute ethanol. […] After electrophoresis, gels were stained with ethidium bromide, and the DNA was visualized by UV light.
smiles,measurement,setting,value
"CCc1cc(C(C)=O)c(O)cc1OCCCCCC(C)(C)c1nnn[nH]1 [LY255283, 1-[5-ethyl-2-hydroxy-4-[[6-methyl-6-(1H-tetrazol-5-yl)heptyl]oxy]phenyl]-ethanone]",apoptosis in prostate normal cells,PWR-1E cells,but not prostate normal cells
same,mitochondria potential,[1]; 10 μM,drop in mitochondria potential
same,increase of green fluorescence (FL-1) compare with control cells,"[1]; JC-1, 10 μM",about 2.5 fold
same,IC50,eosinophil membranes,260 nM
same,VEGF-induced angiogenesis,[2],suppressed VEGF-induced angiogenesis
same,DNA fragmentation,LNCaP cells,A smear of different sizes of DNA fragments was observed
